Laboratory results published in publication PMC6303473 (Nature Communications, 2018).

System: CD8+ T cells from HLA-B*44:02, HLA-B*44:03, or HLA-B*18:01 individuals
Format: cell-based, human
Settings: ICS
From the text: Fig. 1 NP338 elicits robust CD8^+ T cell responses only in the context of HLA-B*37:01. a–d Crystal structures of a HLA-B*37:01 (purple), b HLA-B*18:01 (blue), and c HLA-B*44:05 (yellow) in complex with NP338 WT (represented in black stick). d is showing an overlay of the three peptide–HLA complexes in cartoon representation, with NP338 colored accordingly to the bound HLA, namely, purple (HLA-B*37:01), blue (HLA-B*18:01), and yellow (HLA-B*44:05). e–g PBMCs from HLA-B*37:01^+ donors (n = 5), HLA-B*44:02^+ donors (n = 5), HLA-B*44:03^+ donors (n = 5), or HLA-B*18:01^+ donors (n = 5) were stimulated with a pool of NP338 peptides (10 μM each peptide, 30 μM total), and specificity was assessed in an ICS assay against 3 μM NP338 pool (1 μM each peptide, HLA-B*44:02^+ donors) directly into the well or 30 μM (10 μM each peptide, all other donors) NP338-pooled pulsed APC lines (HLA-B*37:01, HLA-B*44:03, and HLA-B*18:01). CD8^+ T cells are gated on lymphocytes, singlets, live^+ (when stained with the second antibody cocktail only) CD3^mid-high, CD8^+ T cells; as per Supplementary Fig. 2a. e Representative dot plots of IFNγ^+TNFα^+ production by pooled CD8^+ T cell lines derived from HLA-B*37:01^+, HLA-B*44:02^+, HLA-B*44:03^+, or HLA-B*18:01^+ donors, towards a pool of NP338 peptides. […]

Compound | CD8+ T cell response to non-specific stimulation
CCCCCCCCCCCCCC(=O)O[C@@H]1[C@@H](C)[C@@]2(O)[C@@H](C=C(CO)C[C@]3(O)C(=O)C(C)=C[C@@H]23)[C@@H]2C(C)(C)[C@]12OC(C)=O [phorbol 12-myristate 13-acetate] | responded strongly
Concanavalin A | responded strongly
